Literature values, collected in patent US20220023237A1, “ADDITIVE AND/OR SYNERGISTIC COMBINATIONS OF METFORMIN WITH NUTRACEUTICALS FOR THE PREVENTION, INHIBITION AND TREATMENT OF SARS-COV-2 AND ASSOCIATED COVID-19” (priority 2020, published 2022).
Like-named read-outs stand apart in the source and are kept apart here.

What was measured:
[1] = test system: LPS-challenged macrophages; settings: pre-incubated 6 h, 0 to 50 μM, then LPS 24 h
[2] = test system: Nrf2 (+/+) primary peritoneal macrophages
[3] = test system: BALB/c mice with LPS-induced ARDS
[4] = test system: lipopolysaccharide-induced inflammatory reactions
[5] = test system: mice challenged with endotoxin or live Escherichia coli; settings: for concentration of IL-1α: controls 1187.0±278.64
macrophage foam cells = settings: pretreatment with EGCG
[6] = test system: mice with experimental colitis
[7] = test system: mice with LPS-induced ARDS
male Sprague-Dawley rats = settings: EGCG 10 mg/kg intraperitoneally at 1 and 6 h after CL2P and every 12 h
[8] = test system: lipopolysaccharide-activated macrophages; settings: electrophoretic mobility shift assay
[9] = test system: rats subjected to myocardial ischemia and reperfusion; settings: EGCG 10 mg/kg intravenously, then 10 mg/kg/h
C57BL6 mice = settings: EGCG 10 mg/kg intraperitoneally, 72 h after CL2P

**Q.** With `C[S+]([O-])CCCCN=C=S` (stereo not shown) [sulforaphane, 1-isothiocyanato-4-(methylsulfinyl)-butane] as the molecule, how does the “expression of NO and cytokines” value [1] read?
**A.** able to prevent

**Q.** And the HO-1 expression ([2]; LPS-stimulated Nrf2 (+/+) macrophages)?
**A.** significantly augmented

**Q.** And the “LPS-stimulated mRNA expression, protein expression and production of TNF-alpha, IL-1beta, COX-2 and iNOS” value ([2]; pretreatment, Nrf2 (+/+) macrophages)?
**A.** potently inhibited

**Q.** What about the “Nrf2/antioxidant response element (ARE) pathway” value ([3]; pre-treatment) of the same molecule?
**A.** activated

**Q.** And the “PGE2 production, COX-2 and MMP-9 protein expression, iNOS activity” value ([3]; sulforaphane 50 mg/kg)?
**A.** significantly inhibited

**Q.** And the “LDH activity, wet-to-dry ratio of the lungs, serum IL-6 and TNF-α, nuclear factor-κB protein expression” value ([3]; sulforaphane 50 mg/kg, LPS 5 mg/kg 3 days later)?
**A.** significantly decreased

**Q.** With `CC1=CC(=O)C(C(C)C)=CC1=O` [thymoquinone] as the molecule, how does the lipopolysaccharide-induced inflammatory reactions [4] read?
**A.** suppressed effectively

**Q.** And the “concentration of nitric oxide” value ([4]; marker of inflammation)?
**A.** reduced significantly

**Q.** What about the “concentration of IL-1α” value ([5]; 0.75 mg/kg dose) of the same molecule?
**A.** 310.8 ± 70.93 pg/mL

**Q.** What about the IL-10 levels ([5]; 0.75 mg/kg, controls 5505.2 ±333.96) of the same molecule?
**A.** 2885.0 ± 553.98 pg/mL

**Q.** And the “concentration of IL-1α” value ([5]; 1 mg/kg group)?
**A.** 428.3 ± 71.32 pg/mL

**Q.** What about the “levels of TNF-α and IL-2” value ([5]; P values=0.1817 and 0.0851) of the same molecule?
**A.** relatively lower levels

**Q.** And the “renal and hepatic biomarker profiles” value ([5]; septic mice)?
**A.** improved

**Q.** And the reduction of mortality ([5]; septic mice, thymoquinone intraperitoneal)?
**A.** 80-90%

**Q.** Which results are given for Epigallocatechin-3-gallate [EGCG]?
**A.** TNF-α-induced downregulation of ABCA1 and decrease in cholesterol efflux to apoA1 (macrophage foam cells): attenuated; disease activity index (DAI) and spleen index (SI) ([6]; 50 and 100 mg/kg/day, compared with the MD group): decreased; HIF-1α and STAT3 protein expression in the colon ([6]; mouse, in vivo): decreasing; plasma levels of IL-10 and TGF-β1 ([6]; mouse, in vivo): increasing; release of IL-6 and IL-17 ([6]; plasma): reduce; expression of IκB-α ([7]; EGCG 10 mg/kg ip): increased; expression of TLR-4, MyD88, TRIF and p-p65 in the lung tissue ([7]; EGCG 10 mg/kg ip): alleviated; expression of TNF-α, IL-1β and IL-6 in the lung, serum and bronchoalveolar lavage fluid ([7]; EGCG 10 mg/kg ip): significantly decreased; expression of p65 ([7]; EGCG 10 mg/kg ip): no influence; LPS-induced ARDS (blood gases, histological lesions, wet-to-dry weight ratios, MPO activity) ([7]; EGCG 10 mg/kg ip 1 h before LPS 10 mg/kg ip): attenuated; lethal sepsis (mice; first dose given 24 hours after cecal ligation and puncture): rescued; lethal endotoxemia (mice; intraperitoneal administration): protected; hypotension (male Sprague-Dawley rats): significantly improved; activation of nuclear factor-kappaB [8]: blocked; myocardial damage and myeloperoxidase activity [9]: reduced; plasma IL-6 and creatine phosphokinase levels [9]: decreased; survival (C57BL6 mice): significantly improved
